The source of these data is ChEMBL document CHEMBL3608248, “Dimeric Macrocyclic Antagonists of Inhibitor of Apoptosis Proteins for the Treatment of Cancer” (ACS Med Chem Lett, 2015).

A short description of data set [1]: cells. As to conditions: Homo sapiens, A875, 72 h.
Data set [2] can be described thus: physchem. As to conditions: buffer, pH 7.4.
Data set [3] in a line: in vivo. To be noted: Balb/C, mouse, iv, 1 mg/kg.
Data set [4] in a line: in vitro. To be noted: human, plasma.
Data set [5] is described as follows: in vitro. To be noted: dog, liver microsomes. (Microsomes from liver hold many membrane-bound enzymes, among them those of drug oxidation.)
Data set [6] is described as follows: in vitro. As to conditions: rat, liver microsomes.
Data set [7] relates to A875. To be noted: Homo sapiens, 50 mg/kg.
Data set [8] is described as follows: animal or person. As to conditions: Homo sapiens, A875, ip, 72 h, read-out: TGI.
Data set [9] is described as follows: in vivo. To be noted: dog, iv, 0.3 mg/kg.
Data set [10] in a line: in vivo. As to conditions: rat, iv, 1 mg/kg.
Data set [11] in a line: in vitro. As to conditions: dog, plasma.
Data set [12] is described as follows: in vivo. To be noted: dog, iv, 0.3 mg/kg. The source holds these as a separate data set.
A short description of data set [13]: animal or person. To be noted: Homo sapiens, A875, ip, 72 h, read-out: TGI. The source holds these as a separate data set.
Data set [14] can be described thus: in vitro. To be noted: rat, plasma.
Data set [15] can be described thus: in vivo. As to conditions: Balb/C, mouse, iv, 1 mg/kg. This is another data set of the same source.
Data set [16] can be described thus: in vitro. As to conditions: human, liver microsomes.
Data set [17] in a line: animal or person. To be noted: Homo sapiens, A875, ip, read-out: TGI.
In data set [18] the target is hERG (Homo sapiens, UniProt Q12809). The experiment in a line: in vitro.
Data set [19] can be described thus: in vivo. To be noted: rat, iv, 1 mg/kg. The source holds these as a separate data set.
Data set [20] can be described thus: in vivo. As to conditions: Balb/C, mouse, iv, 1 mg/kg. The source holds these as a separate data set.
Data set [21] in a line: in vivo. To be noted: rat, iv, 1 mg/kg. The source holds these as a separate data set.
The subject of data set [22] is HCT-116. The experiment in a line: cells. To be noted: Homo sapiens.
Data set [23] is described as follows: in vivo. To be noted: dog, iv, 0.3 mg/kg. This is another data set of the same source.
For data set [24], the system named is HCT-116/VM46. The experiment in a line: cells. As to conditions: Homo sapiens.
Data set [25] can be described thus: in vitro. To be noted: mouse, liver microsomes.
Data set [26] is described as follows: in vitro. As to conditions: mouse, plasma.
Data set [27] in a line: in vivo. To be noted: Balb/C, mouse, iv, 1 mg/kg. This is another data set of the same source.
For data set [28], the species on record is Mus musculus. To be noted: in vivo, iv, 1 mg/kg, 7 h.

Values after ≈ are worked out from the molar mass of the structure shown. Active and inactive are the calls of the source. The calls are words filed in the database; no cut-off is given here.

hERG, sequence (Q12809 whole entry): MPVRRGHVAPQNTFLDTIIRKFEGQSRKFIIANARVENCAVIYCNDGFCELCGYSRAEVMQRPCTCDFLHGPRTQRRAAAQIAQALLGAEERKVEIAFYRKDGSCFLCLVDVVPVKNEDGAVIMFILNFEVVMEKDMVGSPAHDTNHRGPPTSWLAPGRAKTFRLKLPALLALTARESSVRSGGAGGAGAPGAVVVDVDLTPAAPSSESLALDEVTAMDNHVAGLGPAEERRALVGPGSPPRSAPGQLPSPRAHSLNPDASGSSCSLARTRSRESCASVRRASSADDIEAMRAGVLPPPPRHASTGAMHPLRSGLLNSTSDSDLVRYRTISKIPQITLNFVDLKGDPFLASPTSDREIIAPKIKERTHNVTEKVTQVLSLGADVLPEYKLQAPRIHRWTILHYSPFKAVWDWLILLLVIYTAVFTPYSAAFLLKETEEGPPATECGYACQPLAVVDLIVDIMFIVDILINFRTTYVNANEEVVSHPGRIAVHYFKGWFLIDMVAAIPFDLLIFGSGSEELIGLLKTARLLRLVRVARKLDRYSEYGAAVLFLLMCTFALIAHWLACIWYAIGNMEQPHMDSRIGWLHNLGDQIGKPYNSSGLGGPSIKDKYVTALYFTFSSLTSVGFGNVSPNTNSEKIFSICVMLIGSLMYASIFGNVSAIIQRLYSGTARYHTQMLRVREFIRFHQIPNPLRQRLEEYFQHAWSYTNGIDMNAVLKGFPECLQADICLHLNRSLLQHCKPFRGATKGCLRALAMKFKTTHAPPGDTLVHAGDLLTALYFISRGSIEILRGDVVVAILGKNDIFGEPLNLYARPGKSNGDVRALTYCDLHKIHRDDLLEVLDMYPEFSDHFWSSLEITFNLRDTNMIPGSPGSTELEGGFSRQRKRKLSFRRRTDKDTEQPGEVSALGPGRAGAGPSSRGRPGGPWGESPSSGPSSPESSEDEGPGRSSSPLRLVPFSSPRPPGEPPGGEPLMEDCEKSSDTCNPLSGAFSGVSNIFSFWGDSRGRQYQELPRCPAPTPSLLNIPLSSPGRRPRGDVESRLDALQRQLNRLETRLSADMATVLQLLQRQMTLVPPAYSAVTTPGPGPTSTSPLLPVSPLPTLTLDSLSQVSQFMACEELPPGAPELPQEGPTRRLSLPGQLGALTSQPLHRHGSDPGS

In the case of `C=CCOc1ccc(C[C@H](NC(=O)[C@H](Cc2ccc3ccccc3c2)NC(=O)[C@@H]2C[C@H](n3cc(COc4ccc(C[C@H](NC(=O)[C@H](Cc5ccc6ccccc6c5)NC(=O)[C@@H]5C[C@H](CC=C)CN5C(=O)[C@@H](NC(=O)[C@H](C)NC)C(C)(C)C)NS(=O)(=O)C5CC5)cc4)nn3)CN2C(=O)[C@@H](NC(=O)[C@H](C)NC)C(C)(C)C)C(=O)O)cc1`, the half-maximal inhibitory concentration (IC50) (in general, the concentration needed to halve the response being measured) in data set [1] is more than 1000 nM.

Turning to `CN[C@@H](C)C(=O)N[C@H](C(=O)N1C[C@H]2CCCCOc3ccc(cc3)C[C@@H](C(=O)NS(=O)(=O)C3CC3)NC(=O)[C@H](Cc3ccc4ccccc4c3)NC(=O)[C@@H]3C[C@H](CCCCOc4ccc(cc4)C[C@@H](C(=O)O)NC(=O)[C@H](Cc4ccc5ccccc5c4)NC(=O)[C@@H]1C2)CN3C(=O)[C@@H](NC(=O)[C@H](C)NC)C(C)(C)C)C(C)(C)C`, half-maximal inhibition in [1] (IC50) required 15 nM. Further, in data set [2], the solubility (commonly the dissolved amount per volume that the medium holds) is less than 10 µg/mL.

Regarding `CN[C@@H](C)C(=O)N[C@H](C(=O)N1C[C@H]2C/C=C/COc3ccc(cc3)C[C@@H](C(=O)O)NC(=O)[C@H](Cc3ccc4ccccc4c3)NC(=O)[C@@H]3C[C@@H](CN3C(=O)[C@@H](NC(=O)[C@H](C)NC)C(C)(C)C)n3cc(nn3)COc3ccc(cc3)C[C@@H](NS(=O)(=O)C3CC3)NC(=O)[C@H](Cc3ccc4ccccc4c3)NC(=O)[C@@H]1C2)C(C)(C)C`, the half-inhibitory concentration (IC50) in data set [1] turned out to be 51 nM.

For the molecule `CN[C@@H](C)C(=O)N[C@H](C(=O)N1C[C@H]2CCCCOc3ccc(cc3)C[C@@H](C(=O)O)NC(=O)[C@H](Cc3ccc4ccccc4c3)NC(=O)[C@@H]3C[C@@H](CN3C(=O)[C@@H](NC(=O)[C@H](C)NC)C(C)(C)C)n3cc(nn3)COc3ccc(cc3)C[C@@H](NS(=O)(=O)C3CC3)NC(=O)[C@H](Cc3ccc4ccccc4c3)NC(=O)[C@@H]1C2)C(C)(C)C`, the clearance (commonly the rate of elimination divided by the concentration) in data set [3] is 2.1 mL/min/kg; in data set [21], 6.2 mL/min/kg; in [23] it was 0.4 mL/min/kg. The unbound share (fraction unbound) (in general, the share of the substance not bound to proteins or other matrix) in [4] was found to be 0.075; in data set [11] it was 0.024; in [14] it was 0.019; in [26], 0.058. Further, the half-life (commonly the time in which the quantity being followed falls by half) is more than 2 h in [5]; 1.4 h in data set [6]; 4.7 h in data set [9]; 1.7 h in data set [15]; more than 2 h in [16]; 1 h in data set [19]. The half-life in [25] is more than 2 h. Further, the 50% inhibitory concentration (IC50) in data set [1] was 19 nM; in [22], 92 nM; in [24], 11 nM. Moreover, the TGI entry in data set [7] is “Active”. The inhibition in vivo at 5 mg/kg in [8] was more than 100%; in data set [17], 80%. For the same molecule, the AUC(0-t) (as a rule, the area under the concentration-time curve up to a stated or last time point) at 7 h was found to be 1.71 µM·h in data set [10], 8.43 µM·h in data set [12] and 4.49 µM·h in data set [20]. Moreover, the inhibition in vivo at 2 mg/kg in data set [13] stood at 67%. In [18], the inhibition (as a rule, the percentage by which the read-out fell short of the control) at 30 um came out at 9%. In data set [2], the concentration in solution (solubility) was 50 µg/mL (≈ 32.1 µM).

`CN[C@@H](C)C(=O)N[C@H](C(=O)N1C[C@@H]2C[C@H]1C(=O)N[C@@H](Cc1ccc3ccccc3c1)C(=O)N[C@H](NS(=O)(=O)C1CC1)Cc1ccc(cc1)OCc1cn(nn1)[C@H]1C[C@@H](C(=O)N[C@@H](Cc3ccc4ccccc4c3)C(=O)N[C@H](NS(=O)(=O)C3CC3)Cc3ccc(cc3)OCc3cn2nn3)N(C(=O)[C@@H](NC(=O)[C@H](C)NC)C(C)(C)C)C1)C(C)(C)C` gave a clearance in [3] of 3.6 mL/min/kg. In addition, the Vd (usually a proportionality between amount in the body and measured concentration, not a real space) in data set [27] is 0.3 L/kg. Moreover, half-maximal inhibition in [1] (IC50) was put at 79 nM. The half-life in [15] is 0.9 h. Also, in data set [20], the AUC(0-t) at 7 h came out at 2.35 µM·h.

Consider `CN[C@@H](C)C(=O)N[C@H](C(=O)N1C[C@@H]2C[C@H]1C(=O)N[C@@H](Cc1ccc3ccccc3c1)C(=O)N[C@H](C(=O)O)Cc1ccc(cc1)OCc1cn(nn1)[C@H]1C[C@@H](C(=O)N[C@@H](Cc3ccc4ccccc4c3)C(=O)N[C@H](C(=O)O)Cc3ccc(cc3)OCc3cn2nn3)N(C(=O)[C@@H](NC(=O)[C@H](C)NC)C(C)(C)C)C1)C(C)(C)C`, for which the Vd in [27] is 0.3 L/kg. The molecule further registered an IC50 in data set [1] of 73 nM. The AUC (commonly concentration integrated over time) in data set [28] turned out to be 1.55 µM·h. Besides, the solubility in data set [2] is 130 µg/mL (≈ 86.3 µM).

The molecule `CN[C@@H](C)C(=O)N[C@H](C(=O)N1C[C@@H]2C[C@H]1C(=O)N[C@@H](Cc1ccc3ccccc3c1)C(=O)N[C@H](NS(=O)(=O)C1CC1)Cc1ccc(cc1)OCc1cn(nn1)[C@H]1C[C@@H](C(=O)N[C@@H](Cc3ccc4ccccc4c3)C(=O)N[C@H](C(=O)O)Cc3ccc(cc3)OCc3cn2nn3)N(C(=O)[C@@H](NC(=O)[C@H](C)NC)C(C)(C)C)C1)C(C)(C)C` registered a clearance in data set [3] of 1.5 mL/min/kg. In data set [27], this molecule returned a Vd of 0.1 L/kg. In addition, inhibition in [1] was half-maximal at 39 nM (IC50). This molecule also had a half-life in data set [15] of 1 h. The AUC(0-t) at 7 h in data set [20] was 5.85 µM·h.

In [1], `CN[C@@H](C)C(=O)N[C@H](C(=O)N1C[C@H]2C/C=C/COc3ccc(cc3)C[C@@H](C(=O)NS(=O)(=O)C3CC3)NC(=O)[C@H](Cc3ccc4ccccc4c3)NC(=O)[C@@H]3C[C@H](C/C=C/COc4ccc(cc4)C[C@@H](C(=O)O)NC(=O)[C@H](Cc4ccc5ccccc5c4)NC(=O)[C@@H]1C2)CN3C(=O)[C@@H](NC(=O)[C@H](C)NC)C(C)(C)C)C(C)(C)C` registered an IC50 of 23 nM.

As to `CN[C@@H](C)C(=O)N[C@H](C(=O)N1C[C@@H]2C[C@H]1C(=O)N[C@@H](Cc1ccc3ccccc3c1)C(=O)N[C@H](C(=O)O)Cc1ccc(cc1)OCc1cn(nn1)[C@H]1C[C@@H](C(=O)N[C@@H](Cc3ccc4ccccc4c3)C(=O)N[C@H](c3nnn[nH]3)Cc3ccc(cc3)OCc3cn2nn3)N(C(=O)[C@@H](NC(=O)[C@H](C)NC)C(C)(C)C)C1)C(C)(C)C`, the 50% inhibitory concentration (IC50) in data set [1] was determined as 83 nM.

Take `CN[C@@H](C)C(=O)N[C@H](C(=O)N1C[C@@H]2C[C@H]1C(=O)N[C@@H](Cc1ccc3ccccc3c1)C(=O)N[C@H](C(=O)O)Cc1ccc(cc1)OCc1cn(nn1)[C@H]1C[C@@H](C(=O)N[C@@H](Cc3ccc4ccccc4c3)C(=O)N[C@H](C(=O)OC)Cc3ccc(cc3)OCc3cn2nn3)N(C(=O)[C@@H](NC(=O)[C@H](C)NC)C(C)(C)C)C1)C(C)(C)C`: the IC50 in data set [1] was 310 nM.

Consider `CN[C@@H](C)C(=O)N[C@H](C(=O)N1C[C@@H]2C[C@H]1C(=O)N[C@@H](Cc1ccc3ccccc3c1)C(=O)N[C@H](C(=O)OC)Cc1ccc(cc1)OCc1cn(nn1)[C@H]1C[C@@H](C(=O)N[C@@H](Cc3ccc4ccccc4c3)C(=O)N[C@H](C(=O)OC)Cc3ccc(cc3)OCc3cn2nn3)N(C(=O)[C@@H](NC(=O)[C@H](C)NC)C(C)(C)C)C1)C(C)(C)C`, for which the midpoint of inhibition in [1], the IC50, lay at 690 nM.
